Reference: ChEMBL document CHEMBL1154627, “Structure-activity relationship studies of targeting ligands against breast cancer cells” (J Med Chem, 2009)
Activity calls are given as the source filed them. No cut-off for these calls is given here.

Key:
Mus musculus [1] = assay: In vivo binding affinity to alpha3 integrin receptor in human MDA-MB-231 cells xenografted in iv dosed athymic nude mouse nu/nu by fluorescent imaging; type: functional, organism-based
Mus musculus [2] = assay: Ex vivo binding affinity to alpha3 integrin receptor in human MDA-MB-231 cells xenografted in iv dosed athymic nude mouse nu/nu by fluorescent imaging; type: functional, organism-based
[3] = target: T1, Integrin alpha-3 (Homo sapiens) (UniProt P26006); assay: Binding affinity to alpha3 integrin receptor in human MDA-MB-231 cells by fluorescent microscopy; type: cell-based
T1 sequence (whole entry): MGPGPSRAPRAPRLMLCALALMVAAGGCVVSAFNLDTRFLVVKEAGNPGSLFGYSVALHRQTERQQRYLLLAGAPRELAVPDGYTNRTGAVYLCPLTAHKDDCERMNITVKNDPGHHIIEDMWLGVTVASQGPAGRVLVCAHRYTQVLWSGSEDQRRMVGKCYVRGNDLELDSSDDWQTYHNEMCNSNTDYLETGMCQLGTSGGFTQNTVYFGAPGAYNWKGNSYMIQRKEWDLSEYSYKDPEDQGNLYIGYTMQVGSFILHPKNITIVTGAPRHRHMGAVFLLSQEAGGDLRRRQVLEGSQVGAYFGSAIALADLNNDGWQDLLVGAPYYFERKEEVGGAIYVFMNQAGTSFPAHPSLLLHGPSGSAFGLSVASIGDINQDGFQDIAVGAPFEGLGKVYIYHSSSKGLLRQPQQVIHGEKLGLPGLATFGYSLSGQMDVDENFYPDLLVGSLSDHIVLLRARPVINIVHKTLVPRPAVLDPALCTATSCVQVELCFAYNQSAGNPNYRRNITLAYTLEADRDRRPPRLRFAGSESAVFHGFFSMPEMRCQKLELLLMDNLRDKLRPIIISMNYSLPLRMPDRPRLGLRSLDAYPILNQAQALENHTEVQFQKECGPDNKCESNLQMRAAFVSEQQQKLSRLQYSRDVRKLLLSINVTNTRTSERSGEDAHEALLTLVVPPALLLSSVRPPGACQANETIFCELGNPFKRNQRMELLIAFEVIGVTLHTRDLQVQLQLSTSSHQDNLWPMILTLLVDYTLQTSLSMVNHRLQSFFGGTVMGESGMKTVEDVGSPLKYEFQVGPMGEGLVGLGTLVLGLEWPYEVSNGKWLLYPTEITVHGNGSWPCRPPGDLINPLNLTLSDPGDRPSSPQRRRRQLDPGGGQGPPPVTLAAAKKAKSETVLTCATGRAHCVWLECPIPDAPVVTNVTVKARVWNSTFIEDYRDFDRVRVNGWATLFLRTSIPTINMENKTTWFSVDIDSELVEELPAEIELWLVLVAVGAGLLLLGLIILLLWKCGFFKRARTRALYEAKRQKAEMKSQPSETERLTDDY

[4] = Binding affinity to alpha3beta1 integrin receptor in human MDA-MB-231 cells assessed as inhibition of cell binding to immobilized LXY1 peptide by cell adherence assay; type: cell-based

SMILES	IC50 [4]	further results
NC(=O)C[C@@H]1NC(=O)[C@@H]2C[C@@H](O)CN2C(=O)CNC(=O)[C@H](c2cc(F)cc(F)c2)NC(=O)CNC(=O)[C@@H](CC(=O)O)NC(=O)[C@H](N)CSSC[C@H](C(N)=O)NC1=O	2.1 µM	Activity (Mus musculus [1]): Active; Activity (Mus musculus [2]): Active; Activity [3]: Active
NC(=O)C[C@@H]1NC(=O)[C@@H]2C[C@@H](O)CN2C(=O)CNC(=O)[C@H](c2cccc(F)c2)NC(=O)CNC(=O)[C@@H](CC(=O)O)NC(=O)[C@H](N)CSSC[C@H](C(N)=O)NC1=O	11.3 µM	
NC(=O)C[C@@H]1NC(=O)[C@@H]2C[C@@H](O)CN2C(=O)CNC(=O)[C@H](Cc2ccc(O)c([N+](=O)[O-])c2)NC(=O)CNC(=O)[C@@H](CC(=O)O)NC(=O)[C@H](N)CNC(=O)C[C@H](C(N)=O)NC1=O	> 25 µM	
COc1ccc(NC(=O)N[C@@H]2CSSC[C@H](C(N)=O)NC(=O)[C@H](CC(N)=O)NC(=O)[C@@H]3C[C@@H](O)CN3C(=O)CNC(=O)[C@H](Cc3ccc(O)c([N+](=O)[O-])c3)NC(=O)CNC(=O)[C@@H](CC(=O)O)NC2=O)cc1OC	> 25 µM	
NC(=O)C[C@@H]1NC(=O)[C@@H]2C[C@@H](O)CN2C(=O)CNC(=O)[C@H](Cc2cc(Br)c(O)c(Br)c2)NC(=O)CNC(=O)[C@@H](CC(=O)O)NC(=O)[C@H](N)CSSC[C@H](C(N)=O)NC1=O	> 25 µM	
NC(=O)C[C@@H]1NC(=O)[C@@H]2C[C@@H](O)CN2C(=O)CNC(=O)[C@H](Cc2ccc(O)c([N+](=O)[O-])c2)NC(=O)CNC(=O)[C@@H](CC(=O)O)NC(=O)[C@H](NCc2ccc(C(F)(F)F)cc2)CSSC[C@H](C(N)=O)NC1=O	> 25 µM	
NC(=O)C[C@@H]1NC(=O)[C@@H]2C[C@@H](O)CN2C(=O)CNC(=O)[C@H](c2cc(F)c(F)c(F)c2)NC(=O)CNC(=O)[C@@H](CC(=O)O)NC(=O)[C@H](N)CSSC[C@H](C(N)=O)NC1=O	5.9 µM	
NC(=O)C[C@@H]1NC(=O)[C@@H]2C[C@@H](O)CN2C(=O)CNC(=O)[C@H](Cc2ccc(O)c([N+](=O)[O-])c2)NC(=O)CNC(=O)[C@@H](CC(=O)O)NC(=O)[C@H](NC(=O)CCc2ccccc2)CSSC[C@H](C(N)=O)NC1=O	> 25 µM	
NC(=O)C[C@@H]1NC(=O)[C@@H]2C[C@@H](O)CN2C(=O)CNC(=O)[C@H](Cc2ccc(O)c([N+](=O)[O-])c2)NC(=O)CNC(=O)[C@@H](CC(=O)O)NC(=O)[C@H](NC(=O)Nc2ccc(Cl)cc2)CSSC[C@H](C(N)=O)NC1=O	> 25 µM	
NC(=O)C[C@@H]1NC(=O)[C@@H]2C[C@@H](O)CN2C(=O)CNC(=O)[C@@H]2SCCN2C(=O)CNC(=O)[C@@H](CC(=O)O)NC(=O)[C@H](N)CSSC[C@H](C(N)=O)NC1=O	10.5 µM	
CN(C)c1ccc(CN[C@@H]2CSSC[C@H](C(N)=O)NC(=O)[C@H](CC(N)=O)NC(=O)[C@@H]3C[C@@H](O)CN3C(=O)CNC(=O)[C@H](Cc3ccc(O)c([N+](=O)[O-])c3)NC(=O)CNC(=O)[C@@H](CC(=O)O)NC2=O)cc1	> 25 µM	
NC(=O)[C@H]1CSSC[C@@H](N)C(=O)N[C@H](CC(=O)O)C(=O)NCC(=O)N[C@@H](Cc2ccc(O)c([N+](=O)[O-])c2)C(=O)NCC(=O)N2C[C@H](O)C[C@H]2C(=O)N[C@@H](CC(=O)O)C(=O)N1	17.1 µM	
NC(=O)C[C@@H]1NC(=O)[C@@H]2C[C@@H](O)CN2C(=O)CNC(=O)[C@H](Cc2ccc(O)c([N+](=O)[O-])c2)NC(=O)CNC(=O)[C@@H](CC(=O)O)NC(=O)[C@H](NC(=O)Nc2ccc([N+](=O)[O-])cc2)CSSC[C@H](C(N)=O)NC1=O	> 25 µM	
NC(=O)C[C@@H]1NC(=O)[C@@H]2C[C@@H](O)CN2C(=O)CNC(=O)[C@H](c2ccccc2F)NC(=O)CNC(=O)[C@@H](CC(=O)O)NC(=O)[C@H](N)CSSC[C@H](C(N)=O)NC1=O	> 25 µM	
NC(=O)C[C@@H]1NC(=O)[C@@H]2C[C@@H](O)CN2C(=O)CNC(=O)[C@@H]2C[C@@H](F)CN2C(=O)CNC(=O)[C@@H](CC(=O)O)NC(=O)[C@H](N)CSSC[C@H](C(N)=O)NC1=O	18.5 µM	
NC(=O)C[C@@H]1NC(=O)[C@@H]2C[C@@H](O)CN2C(=O)CNC(=O)[C@H](Cc2ccc(O)c([N+](=O)[O-])c2)NC(=O)CNC(=O)[C@@H](CC(=O)O)NC(=O)[C@H](NCc2cccc([N+](=O)[O-])c2)CSSC[C@H](C(N)=O)NC1=O	> 25 µM	
